Reference: patent publication US6784205B2, “Compounds that modulate the activity of PTP-1B and TC-PTP” (Sunesis Pharmaceuticals, Inc., priority 2002, dated 2004)

Legend:
human PTP-1B = molecular target: T1, human PTP-1B (Homo sapiens, UniProt P18031); assay: PTP-1B IC50 determination with pNPP substrate; assay type: biochemical
T1 construct: A shorter cDNA, PTP-1B 298, encoding amino acid residues 1-298 was generated; made in house; host or cells: E. coli BL21 codon plus (Stratagene), pRSETc
T1 sequence (P18031 1-298): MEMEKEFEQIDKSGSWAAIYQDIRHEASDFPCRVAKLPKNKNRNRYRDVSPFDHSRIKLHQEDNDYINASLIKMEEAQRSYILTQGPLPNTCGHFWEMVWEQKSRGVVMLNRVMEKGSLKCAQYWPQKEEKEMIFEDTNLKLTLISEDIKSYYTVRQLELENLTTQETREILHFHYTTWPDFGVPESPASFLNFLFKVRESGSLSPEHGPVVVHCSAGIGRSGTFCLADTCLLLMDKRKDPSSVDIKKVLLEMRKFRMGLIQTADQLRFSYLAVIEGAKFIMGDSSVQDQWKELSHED

TC-PTP = molecular target: T2, TC-PTP (Homo sapiens, UniProt P17706); assay: Inhibition of TC-PTP; assay type: biochemical; conditions: read-out: IC50 against TC-PTP
T2 sequence (P17706 1-415): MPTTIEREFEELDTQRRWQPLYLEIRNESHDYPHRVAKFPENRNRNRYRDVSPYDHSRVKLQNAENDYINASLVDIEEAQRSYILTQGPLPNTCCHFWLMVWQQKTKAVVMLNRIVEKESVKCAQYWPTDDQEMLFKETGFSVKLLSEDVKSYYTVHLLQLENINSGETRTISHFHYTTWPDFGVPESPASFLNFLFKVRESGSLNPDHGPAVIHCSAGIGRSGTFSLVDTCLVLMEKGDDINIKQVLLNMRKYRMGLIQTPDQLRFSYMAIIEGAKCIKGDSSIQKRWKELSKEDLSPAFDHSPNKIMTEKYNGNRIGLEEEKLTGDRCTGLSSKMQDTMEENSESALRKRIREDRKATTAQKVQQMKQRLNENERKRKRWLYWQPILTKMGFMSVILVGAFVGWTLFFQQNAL

[1] = molecular target: tyrosine phosphatase leukocyte common antigen related protein (LAR) (Homo sapiens, UniProt P10586); assay: Inhibition of LAR; assay type: biochemical
[2] = tested on: insulin receptor phosphorylation in CHO-IR cells; assay: Insulin receptor phosphorylation in CHO-IR cells (ELISA); assay type: cell-based; conditions: compound added 1 hour prior to harvesting, FIG. 9
Method: This example describes an illustrative assay for quantifying the degree of insulin receptor phosphorylation in cells. Any suitable cells can be used. In this example, CHO-IR cells were grown in DMEM w/10% fetal bovine serum supplemented with penicillin and streptomycin. Cells were plated at a density of 40,000 cells per well in a 96 well plate. The following day, the medium was changed to DMEM without serum and the cells were serum starved for 16 hours. 1 hour prior to harvesting, varying concentrations of a test compound diluted in DMEM were added to the cells. Where indicated, human insulin was added to cells 10 minutes prior to harvesting. Cell were lysed in 30 mM HEPES, 150 mM NaCl, 1% triton X-100, and 0.02% sodium azide. Insulin receptor phosphorylation was quantitated in an ELISA assay as described previously (Jongsoon Lee).

Chain of tyrosine phosphatase leukocyte common antigen related protein (LAR) (P10586 30-1907): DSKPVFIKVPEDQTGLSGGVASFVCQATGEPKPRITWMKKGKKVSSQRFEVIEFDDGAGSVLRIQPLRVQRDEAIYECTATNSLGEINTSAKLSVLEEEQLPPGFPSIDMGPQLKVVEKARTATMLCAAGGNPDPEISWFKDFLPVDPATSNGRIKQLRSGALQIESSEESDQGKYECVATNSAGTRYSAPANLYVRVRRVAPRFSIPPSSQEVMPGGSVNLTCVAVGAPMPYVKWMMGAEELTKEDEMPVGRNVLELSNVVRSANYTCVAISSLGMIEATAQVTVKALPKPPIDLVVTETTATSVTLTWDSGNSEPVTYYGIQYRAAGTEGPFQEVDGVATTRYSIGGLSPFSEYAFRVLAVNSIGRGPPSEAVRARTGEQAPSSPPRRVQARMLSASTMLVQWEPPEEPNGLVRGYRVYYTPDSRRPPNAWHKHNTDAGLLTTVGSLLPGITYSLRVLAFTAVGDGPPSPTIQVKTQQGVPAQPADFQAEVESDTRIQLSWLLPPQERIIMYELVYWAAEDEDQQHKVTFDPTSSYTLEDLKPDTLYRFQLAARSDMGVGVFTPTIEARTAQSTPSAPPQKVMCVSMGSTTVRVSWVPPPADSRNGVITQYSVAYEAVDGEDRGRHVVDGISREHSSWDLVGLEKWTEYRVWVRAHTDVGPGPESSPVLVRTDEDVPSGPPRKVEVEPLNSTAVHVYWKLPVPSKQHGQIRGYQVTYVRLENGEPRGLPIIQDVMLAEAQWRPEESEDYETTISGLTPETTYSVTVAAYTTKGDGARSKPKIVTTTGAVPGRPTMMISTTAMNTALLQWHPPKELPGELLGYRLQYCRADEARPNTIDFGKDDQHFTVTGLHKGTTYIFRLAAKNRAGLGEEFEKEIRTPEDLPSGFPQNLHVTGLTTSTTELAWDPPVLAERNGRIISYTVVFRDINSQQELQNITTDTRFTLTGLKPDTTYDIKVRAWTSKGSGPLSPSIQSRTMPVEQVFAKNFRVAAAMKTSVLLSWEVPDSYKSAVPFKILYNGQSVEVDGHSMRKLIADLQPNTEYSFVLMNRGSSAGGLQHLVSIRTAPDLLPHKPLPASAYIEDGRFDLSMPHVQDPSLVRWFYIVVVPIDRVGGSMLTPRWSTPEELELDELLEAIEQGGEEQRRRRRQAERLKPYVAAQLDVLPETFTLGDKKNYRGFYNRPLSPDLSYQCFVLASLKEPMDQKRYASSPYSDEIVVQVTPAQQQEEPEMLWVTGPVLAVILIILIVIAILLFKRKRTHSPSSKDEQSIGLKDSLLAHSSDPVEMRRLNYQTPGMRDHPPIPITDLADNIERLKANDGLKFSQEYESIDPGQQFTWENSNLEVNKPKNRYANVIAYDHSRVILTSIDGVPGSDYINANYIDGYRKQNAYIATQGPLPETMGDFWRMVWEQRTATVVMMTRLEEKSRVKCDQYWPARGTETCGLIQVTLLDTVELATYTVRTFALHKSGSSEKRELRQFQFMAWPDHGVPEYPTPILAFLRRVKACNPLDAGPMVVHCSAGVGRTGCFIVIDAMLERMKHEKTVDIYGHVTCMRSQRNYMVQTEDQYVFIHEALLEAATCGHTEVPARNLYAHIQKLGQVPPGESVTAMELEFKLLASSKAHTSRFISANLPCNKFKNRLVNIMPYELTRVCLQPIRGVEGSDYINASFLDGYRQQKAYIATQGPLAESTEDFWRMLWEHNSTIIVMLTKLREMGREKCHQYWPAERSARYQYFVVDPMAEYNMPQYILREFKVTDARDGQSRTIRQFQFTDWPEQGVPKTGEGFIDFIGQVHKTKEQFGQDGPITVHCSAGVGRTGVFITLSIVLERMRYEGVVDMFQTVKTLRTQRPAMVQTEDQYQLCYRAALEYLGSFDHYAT

## CCc1oc2cc(S(=O)(=O)Nc3ccc(S(N)(=O)=O)cc3)ccc2c1C(=O)c1cc(Br)c(O)c(Br)c1 [compound 5]
Human PTP-1B; pNPP, varying concentrations of inhibitor
  dependence of reaction velocity on substrate concentration: sigmoidal dependence
Human PTP-1B; reaction velocity versus pNPP concentration, FIG. 8
  effect on Vmax with increasing inhibitor concentration: decrease in Vmax
TC-PTP
  IC50: ~130 µM
[1]
  inhibition of LAR: does not inhibit
[2]
  level of insulin receptor phosphorylation: is a function of the concentration of compound 5
